Measurements: patent US8187646B2, “Nucleotide pyrophosphatase inhibitor and coenzyme regenerating systems” (Puratos N.V., priority 2004, dated 2012)
“Also recorded” adds a separate entry of the source.

How the values were obtained:
[1] = test system: wheat flour nucleotide pyrophosphatase (NPP); experiment: In vitro NPP inhibition studies (NAD+ degradation by wheat flour extract); assay type: biochemical; settings: for reactivation of the inhibited enzyme by divalent metal ions: addition of divalent ions (Mg2+, Mn2+; excess MgCl2, MnCl2, ZnCl2, CaCl2); for ability to inhibit NPP in wheat flour: ADP about 1-2 mM, phosphates tested at 10 g/l
Procedure: As an example of nucleotide pyrophosphatase inhibition, pyrophosphate was tested.
To perform in vitro nucleotide pyrophosphatase (NPP) inhibition studies, a reaction mixture of 5 ml was made containing 2.5 ml of flour extract (see Example 12), 1.5 ml of NAD^+ or NADH solution and 1 ml of potential inhibitor. The coenzymes and inhibitors were dissolved in a 0.2 M acetate buffer at pH 5.5. The final coenzyme concentration was 0.5 mM, unless otherwise mentioned. The different phosphates ([…] (Na2H2P2O7), sodium metaphosphate ((NaPO3)n), pentasodium tripolyphosphate (Na5P3O10), tetrasodium pyrophosphate (Na4P2O7) and dicalcium pyrophosphate (CaH2P2O7)) were tested in a concentration of 10 g/l. For the reactivation experiments with metal ions and to test a synergetic effect of glycine with EDTA the reaction mixture was adapted: 500 μl of inhibitor was added together with 500 μl of cation or glycine instead of 1 ml inhibitor. For the reactivation experiments with metal ions, the chloride forms of the cations were used, i.e. MgCl2, MnCl2, ZnCl2 and CaCl2.
A flour extract was prepared based on the method described by Honold et al. (1966, Cereal Chemistry 43:517-528). To 5 g of flour, 25 ml of an aqueous 12.5% sucrose solution was added. The solution was homogenised with an UltraTurrax mixer (IKA Werke, Janke & Kunkel GmbH & CoKG, Staufen, Germany). This homogenised flour suspension was centrifuged during 5 minutes at 1000 rpm (77 g) (SS34 rotor, Sorvall RC 5B centrifuge). The supernatant was recovered and filtrated through Whatman No. 1 filter paper. The filtrate was used as crude flour extract. All steps were carried out between 0° C. and 5° C.

[2] = test system: nicotinamide coenzymes NAD+/NADH in dough systems; experiment: Coenzyme (NAD+/NADH) concentrations in dough systems (mini doughs); design: species or system wheat; settings: 0.3 g calcium pyrophosphate per 100 g flour; before and after 60 minutes dough resting at 25° C.
Procedure: The oxidised (NAD^+) and reduced (NADH) form of the nicotinamide coenzymes were extracted from doughs with an acid and alkaline extraction method respectively.
The coenzymes, NAD^+ and NADH, can be determined with an isocratic reversed phase HPLC method on a Varian Prostar HPLC system. Separation of the coenzymes NAD^+ and NADH was carried out on a Chromsep Microspher 3C18 column (3 μm particle size, 4.6×100 mm, Chrompack). The mobile phase was 96% 0.15 M citrate-sodium phosphate buffer (pH 6.8) containing 1 mM EDTA, and 4% methanol (30° C.). The flow rate was 0.5 ml/min and detection was accomplished by UV absorption at 260 nm (Varian Prostar UV 320).
All samples were filtrated (Sartorius Minisart RC15, 0.45 μm) and sample injection (20 μl) was accomplished with a Varian Prostar 410 autosampler. The nucleotide concentration was measured by the peak area of the chromatogram with calibration curves, which were prepared using a known amount of coenzymes.
Baking tests were performed with mini doughs (150 g).
The doughs were kneaded with a pin mixer during 4.5 minutes, after which they were incubated during 20 minutes at 25° C. The dough was sheeted and incubated again at 25° C. during 20 minutes, after which it was sheeted and incubated for 50 minutes at 36° C. and at a relative humidity of 80%. […] Bread volume after baking was determined by the rapeseed displacement method.

[3] = inhibitor at 4 mM, in vitro tests

## O=P(O)(O)OP(=O)(O)O [sodium pyrophosphate, Na2H2P2O7]
[1]; 100 mM sodium pyrophosphate
  inhibition of the NPP enzyme: completely inhibited

## O=C(O)CN(CCN(CC(=O)O)CC(=O)O)CC(=O)O [EDTA]
[1]
  reactivation of the inhibited enzyme by divalent metal ions: reactivated partially
[1]; from a concentration of 4 mM EDTA on, in vitro
  inhibition of the wheat flour NPP: complete inhibition

## O=P(O)(O)OP(=O)(O)O [pyrophosphate]
[2]
  coenzyme concentrations (NAD+ and NADH) in dough: higher coenzyme concentrations were observed
[1]; 10 mM pyrophosphate
  inhibition of NAD+ degradation by a wheat flour extract: Partial inhibition
[1]; 20 mM pyrophosphate
  inhibition of NAD+ degradation by a wheat flour extract: Partial inhibition
[1]
  reactivation of the inhibited enzyme by divalent metal ions: This is not the case; also recorded: could not reactivate the enzyme
[1]; suggested: no reactivation by metal ions, pyrophosphate split into phosphate by flour extract
  mode of inhibition of wheat flour nucleotide pyrophosphatase: competitive inhibitor

## O[C@H](CS)[C@H](O)CS (racemic) [DTT, dithiothreitol]
[1]; [3]
  inhibition of the NPP: inhibited the NPP at some extent

## N[C@@H](CS)C(=O)O [L-cysteine]
[1]; [3]
  inhibition of the NPP: inhibited the NPP at some extent

## Nc1ncnc2c1ncn2[C@@H]1O[C@H](COP(=O)(O)OP(=O)(O)O)[C@@H](O)[C@H]1O [ADP]
[1]; ADP 1 mM
  inhibition of the NPP: inhibit the NPP partially
[1]
  ability to inhibit NPP in wheat flour: able to inhibit

## sodium metaphosphate ((NaPO3)n)
[1]
  ability to inhibit NPP in wheat flour: able to inhibit

## O=P([O-])([O-])OP(=O)([O-])OP(=O)([O-])[O-].[Na+].[Na+].[Na+].[Na+].[Na+] [tripolyphosphate, pentasodium tripolyphosphate (Na5P3O10)]
[1]
  ability to inhibit NPP in wheat flour: able to inhibit

## O=P([O-])(O)OP(=O)([O-])O.[Ca+2] [Ca-pyrophosphate, CaH2P2O7]
[1]; 50 to 100 mM Ca-pyrophosphate
  inhibition of NAD+ degradation by a wheat flour extract: completely inhibit
